Measured values as given in US7482486B2, “Methods for the preparation and formulation of magnesium valproate hydrate” (BioLink Life Sciences, Inc., priority 2005, dated 2009).

Tests used:
[1] = background statement; cited from earlier work
[2] = in comparison with sodium valproate or valproic acid; cited from earlier work
[3] = tested on: deacetylase; settings: dose between 20 and 40 mg/kg; patients with cervical cancer; cited from earlier work
[4] = tested on: epileptic patients; assay: Open, comparative clinical trial in epileptic patients versus sodium valproate; settings: expected
From the text: The therapeutic benefit of magnesium valproate hydrate of the present invention is compared with that of sodium valproate in an open, comparative clinical trial in epileptic patients. […] Then treatment is substituted with magnesium valproate hydrate (alone or combined with other drugs) for 3 months.

[5] = Stability of the solid during storage; type: physicochemical; settings: ambient conditions where stated, hydrate
[6] = Hygroscopicity / deliquescence of the solid; type: physicochemical; settings: isolated solid
[7] = cited from earlier work
[8] = after 3 months of magnesium valproate hydrate, substituted for sodium valproate

CCCC(CCC)C(=O)[O-].[Na+] [Sodium valproate]
hygroscopicity [1]: hygroscopic

2-propylpentanoic acid magnesium salt [magnesium valproate]
absorption rate [2]: slower and more regular absorption rate | deacetylase activity and histone acetylation in tumor tissues [3]: inhibits deacetylase activity and hyperacetylates histones

magnesium valproate hydrate
number of patients with no convulsions or only occasional convulsions [4, 8]: increase significantly | percentage of patients without convulsions [4, 8]: increase significantly | side effects (e.g., gastric discomfort or ulceration, malaise) ([4]; versus sodium valproate): fewer side effects | stability during storage [5]: stable during storage under ambient conditions | hygroscopicity / deliquescence [6]: not hygroscopic or deliquescent

CCCC(CCC)C(=O)O [Valproic acid, 2-propylpentanoic acid]
solubility in water [7]: very slightly soluble in water

CCCC(CCC)C(=O)O [divalproex sodium]
hygroscopicity [1]: not hygroscopic
